Where two headings read alike, the source gives them in different places.
Assay: Pharmacokinetic study in rats (oral gavage and tail vein injection, plasma LC-MS/MS)
Assay type: in vivo
Conditions: rat; for Cmax: read-out: Cmax
Description: Male SPF-grade SD rats (Beijing Vital River Laboratory Animal Technology Co., Ltd.) with a body weight range of 200 to 250 g were used. After acclimatization, the rats were administered a clear solution of the compound of the present disclosure via oral gavage (Po, fasted overnight before administration with free access to water, food returned 4 hours after administration) and tail vein injection (Iv, free access to food and water throughout the administration). Blood samples were collected from the orbital venous plexus/jugular vein of rats at specified time points after administration (blood collection time points for the PO group: 0.167, 0.5, 1, 2, 4, 6, 8, and 24 h; for the IV group: 0.033, 0.167, 1, 2, 4, 6, 8, and 24 h). The concentration of compounds in plasma was detected by LC-MS/MS (AB SCIEX Qtrap4500). Data were analyzed using WinNonlin (version 5.2.1 Pharsight, Mountain View, CA) with a non-compartmental model to obtain PK parameters (including Cmax, C0, Tmax, AUClast, AUCinf, T1/2, etc.).
Table 3: Results of in vivo pharmacokinetic studies of compounds of the present disclosure in rats
The vehicle for the Po group compound was 5% DMSO + 5% ethanol + 60% PEG400 + 30% normal saline; the vehicle for the Iv group compound was 10% ethanol + 20% pure water + 70% PEG400 solution.

| AUC(0-t) (in vivo, SD rats, Iv, 1 mg/kg) [ng·h/mL] | Cmax (in vivo, SD rats, Iv, 1 mg/kg) [ng/mL] | half-life (in vivo, iv, 1 mg/kg, SD rats) [h] | half-life (male, SD, iv, 1 mg/kg) [h] | half-life (male, SD, po, 1 mg/kg) [h] | AUC(0-t) (male, SD rats, Iv, 1 mg/kg) [ng·h/mL] | Cmax (male, SD rats, Iv, 1 mg/kg) [ng/mL] | AUC(0-t) (male, SD rats, Po, 1 mg/kg) [ng·h/mL] | Cmax (male, SD rats, Po, 1 mg/kg) [ng/mL] | AUC(0-t) (in vivo, SD rats, Po, 1 mg/kg) [ng·h/mL] | Cmax (in vivo, SD rats, Po, 1 mg/kg) [ng/mL] | half-life (in vivo, po, 1 mg/kg, SD rats) [h] | SMILES | other results |
| --- | --- | --- | --- | --- | --- | --- | --- | --- | --- | --- | --- | --- | --- |
| – | – | – | 3.46 | 3.49 | 5000 to 10000 | 800 to 5000 | 10000 to 20000 | 800 to 5000 | – | – | – | Cc1nc(-c2nnn(C)c2NC(=O)O[C@H](C)c2ccccc2)ccc1C#C[C@@H]1C[C@H]1C(=O)O [compound 295] | – |
| 3000 to 5000 | 800 to 5000 | 7.66 | – | – | – | – | – | – | 3000 to 5000 | 200 to 800 | 7.2 | Cc1nc(-c2nnn(C)c2NC(=O)O[C@H](C)CC(C)(C)F)ccc1C#C[C@@H]1CC[C@H]1C(=O)O [compound 306] | – |
| 3000 to 5000 | 800 to 5000 | 8.42 | – | – | – | – | – | – | 5000 to 10000 | 200 to 800 | 6.41 | Cc1nc(-c2nnn(C)c2NC(=O)O[C@H](C)CCC(C)(F)F)ccc1C#CC1(CC(=O)O)CC1 [compound 314] | – |
| – | – | – | 6.65 | 5.53 | 1200 to 3000 | 800 to 5000 | 1200 to 3000 | 200 to 800 | – | – | – | CCCN(C)C(=O)OCc1c(-c2ccc(C#C[C@@H]3CCC[C@H]3C(=O)O)c(C)n2)nnn1C [compound 355] | – |

Further lines, the molecule ahead of its results:

| SMILES | AUC(0-t) (in vivo, SD rats, Iv, 1 mg/kg) [ng·h/mL] | Cmax (in vivo, SD rats, Iv, 1 mg/kg) [ng/mL] | half-life (in vivo, iv, 1 mg/kg, SD rats) [h] | half-life (male, SD, iv, 1 mg/kg) [h] | half-life (male, SD, po, 1 mg/kg) [h] | AUC(0-t) (male, SD rats, Iv, 1 mg/kg) [ng·h/mL] | Cmax (male, SD rats, Iv, 1 mg/kg) [ng/mL] | AUC(0-t) (male, SD rats, Po, 1 mg/kg) [ng·h/mL] | Cmax (male, SD rats, Po, 1 mg/kg) [ng/mL] | AUC(0-t) (in vivo, SD rats, Po, 1 mg/kg) [ng·h/mL] | Cmax (in vivo, SD rats, Po, 1 mg/kg) [ng/mL] | half-life (in vivo, po, 1 mg/kg, SD rats) [h] | other results |
| --- | --- | --- | --- | --- | --- | --- | --- | --- | --- | --- | --- | --- | --- |
| CCC[C@H](C)OC(=O)Nc1c(-c2ccc(C#CC3(CC(=O)O)CC3)c(C)n2)nnn1C [010-B] | 5000 to 10000 | 800 to 5000 | 8.56 | – | – | – | – | – | – | – | – | – | AUC(0-t) (in vivo, SD rats, Po, 3 mg/kg): 10000 to 20000 ng·h/mL; Cmax (in vivo, SD rats, Po, 3 mg/kg): 800 to 5000 ng/mL; half-life (in vivo, po, 3 mg/kg, SD rats): 6.85 h |
| CCC(F)(F)[C@@H](C)OC(=O)Nc1c(-c2ccc(C#CC3(CC(=O)O)CC(OC)C3)c(C)n2)nnn1C (stereo partly drawn) [compound 279] | – | – | – | – | – | – | – | – | – | – | – | – | AUC(0-t) (SD rats, Iv, 1 mg/kg): 5000 to 10000 ng·h/mL; half-life (SD rats, Iv, 1 mg/kg): 5.82 h; Cmax (SD rats, Iv, 1 mg/kg): 5000 to 8000 ng/mL; AUC(0-t) (SD rats, Po, 1 mg/kg): 5000 to 10000 ng·h/mL; half-life (SD rats, Po, 1 mg/kg): 6.39 h; Cmax (SD rats, Po, 1 mg/kg): 800 to 5000 ng/mL |
| Cc1nc(-c2nnn(C)c2NC(=O)OC(C)CCC(F)F)ccc1C#CC1(CC(=O)O)CC1 (stereo not drawn) [compound 283, 2-(1-((6-(5-((((5,5-difluoropentan-2-yl)oxy)carbonyl)amino)-1-methyl-1H-1,2,3-triazol-4-yl)-2-methylpyridin-3-yl)ethynyl)cyclopropyl)acetic acid] | – | – | – | 7.36 | 6.9 | 5000 to 10000 | 800 to 5000 | 5000 to 10000 | 200 to 800 | – | – | – | – |
| Cc1nc(-c2nnn(C)c2NC(=O)OC(C)C23CC(F)(C2)C3)ccc1C#CC1(CC(=O)O)CC1 (stereo not drawn) [compound 285] | – | – | – | – | – | 5000 to 10000 | 800 to 5000 | 3000 to 5000 | 200 to 800 | – | – | – | half-life (male, SD rats, Iv, 1 mg/kg): 9.86 h; half-life (male, SD rats, Po, 1 mg/kg): 6.12 h |
| Cc1nc(-c2nnn(C)c2NC(=O)OC(C)CC(C)(F)F)ccc1C#CC1CC1C(=O)O (stereo not drawn) [compound 291] | 5000 to 10000 | 800 to 5000 | 4.68 | – | – | – | – | – | – | 3000 to 5000 | 800 to 5000 | 5.15 | – |
| CCCc1ccnc(NCc2c(-c3ccc(C#CC4(CC(=O)O)CC4)c(C)n3)nnn2C)n1 [compound 365] | – | – | – | – | – | – | – | – | – | – | – | – | AUC(0-t) (SD rats, Iv, 1 mg/kg): 1200 to 3000 ng·h/mL; half-life (SD rats, Iv, 1 mg/kg): 7.21 h; Cmax (SD rats, Iv, 1 mg/kg): 800 to 5000 ng/mL; AUC(0-t) (SD rats, Po, 1 mg/kg): 1200 to 3000 ng·h/mL; half-life (SD rats, Po, 1 mg/kg): 5.98 h; Cmax (SD rats, Po, 1 mg/kg): 200 to 800 ng/mL |
